Activity calls are given as the source filed them.
Key:
[1] = target: Albumin (Bos taurus, UniProt P02769); assay: Counterscreen for inhibitors of T-cell receptor (TCR)-CD3 interaction: Fluorescence-based biochemical high throughput dose response assay to identify inhibitors of T-cell receptor (TCR)-CD3 interaction using a TAMRA-labeled BSA probe.; type: functional
[2] = target: Cytochrome P450 2C19 (Homo sapiens, UniProt P33261); assay: Cytochrome panel assay with activity outcomes. Panel member name: p450-cyp2c19 Compounds with AC50 equal or less than 10 uM are considered active; type: functional; conditions: read-out: AC50
[3] = target: Beta-galactosidase (Escherichia coli, UniProt Q8VNN2); assay: Dose response counterscreen for EBI2 assay utilizing the enzyme, b-galactosidase.; type: functional
[4] = target: T1, Cytochrome P450 1A2 (Homo sapiens, UniProt P05177);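 note: PubChem cytochrome P450 panel assay, CYP1A2 panel member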
T1 sequence (P05177 whole entry): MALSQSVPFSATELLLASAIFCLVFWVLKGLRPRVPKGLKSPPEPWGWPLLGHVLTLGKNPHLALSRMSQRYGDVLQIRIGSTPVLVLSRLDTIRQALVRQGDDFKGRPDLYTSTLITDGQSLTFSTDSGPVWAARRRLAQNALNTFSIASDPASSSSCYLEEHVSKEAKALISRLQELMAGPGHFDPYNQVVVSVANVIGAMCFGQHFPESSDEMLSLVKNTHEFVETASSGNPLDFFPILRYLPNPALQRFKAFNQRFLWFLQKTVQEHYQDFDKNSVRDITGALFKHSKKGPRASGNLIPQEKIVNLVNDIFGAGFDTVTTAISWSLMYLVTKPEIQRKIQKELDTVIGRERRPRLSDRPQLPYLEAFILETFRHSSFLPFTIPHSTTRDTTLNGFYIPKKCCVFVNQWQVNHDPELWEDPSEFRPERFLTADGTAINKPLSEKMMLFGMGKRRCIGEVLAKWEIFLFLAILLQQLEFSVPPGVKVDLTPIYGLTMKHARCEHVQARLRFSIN

[5] = target: Peroxisome proliferator-activated receptor gamma/Nuclear receptor coactivator 1 (Homo sapiens, UniProt P37231); assay: TR-FRET dose response biochemical High Throughput Screening assay for agonists of the steroid receptor coactivator 1 (SRC-1) recruitment by the peroxisome proliferator-activated receptor gamma (PPAR gamma): non-selective agonists. [Related pubchem assays (depositor defined):AID1300, AID1808, AID504735, AID631]; type: protein assay
[6] = target: Peroxisome proliferator-activated receptor gamma/Nuclear receptor coactivator 3 (Homo sapiens, UniProt P37231); assay: TR-FRET dose response biochemical High Throughput Screening assay for agonists of the steroid receptor coactivator 3 (SRC-3) recruitment by the peroxisome proliferator-activated receptor gamma (PPAR gamma): non-selective agonists. [Related pubchem assays: 1301 (Confirmation screen.), 1048 (Primary screen.)]; type: functional
[7] = target: Peroxisome proliferator-activated receptor gamma/Nuclear receptor coactivator 2 (Homo sapiens, UniProt P37231); assay: TR-FRET dose response biochemical High Throughput Screening assay for agonists of the steroid receptor coactivator 2 (SRC-2) recruitment by the peroxisome proliferator-activated receptor gamma (PPAR gamma): non-selective agonists. [Related pubchem assays: 1297, 1032 ]; type: functional
[8] = target: Photoreceptor-specific nuclear receptor (Homo sapiens, UniProt Q9Y5X4); type: functional, cell-based;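 note: CHO-S cells with Gal4-NCOR and VP16-NR2E3 two-hybrid luciferase reporter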
[9] = target: SWI/SNF-related matrix-associated actin-dependent regulator of chromatin subfamily A member 2 (Homo sapiens, UniProt P51531); assay: Luminescence-based cell-based high throughput dose response assay to identify activators of the function of SWI/SNF related, matrix associated, actin dependent regulator of chromatin, subfamily a, member 2 (SMARCA2, BRM).; type: functional
[10] = Counterscreen for activators of the function of SWI/SNF related, matrix associated, actin dependent regulator of chromatin, subfamily a, member 2 (SMARCA2, BRM): Luminescence-based cell-based high throughput dose response assay to identify non-selective compounds using the VP16 reporter assay.; type: functional
[11] = target: Oxysterols receptor LXR-beta (Homo sapiens, UniProt P55055); type: functional, cell-based;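 note: agonist activity at LXR measured by a cell-based luminescence readout across a dose range, run as a counterscreen for daf-12 agonists; HEK293 cells with Gal4-LXR fusion and GAL4-driven luciferase reporter; potency for activation of Gal4-LXR reporter so compounds are agonists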
[12] = Trypanosoma cruzi growth suppression in host cells – NIH3T3 host cells, beta-gal luminescence, confirmation (AID 2044); type: functional, cell-based;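 note: intracellular parasites grown in NIH/3T3 mouse fibroblasts as host cells; luminescent beta-galactosidase reporter signal from transgenic T. cruzi replicating inside host cells; inhibitors lower the luminescence signal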
[13] = NIH3T3 cell viability loss – ATP luminescence, mouse fibroblasts, counter-screen, dose response (AID 2010); type: functional, cell-based;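 note: cells exposed to compound for about 90 hours before reading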
[14] = potency of ADAM10 substrate cleavage blockers – biochemical, QFRET, dose response (AID 743254);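 note: ADAM10 enzyme with the DM2 quenched FRET peptide as substrate; EDANS fluorescence gain as the protease cuts the substrate; inhibitor potency against ADAM10 proteolytic activity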
[15] = target: T2, Disintegrin and metalloproteinase domain-containing protein 17 (Homo sapiens, UniProt P78536); assay: inhibition of ADAM17 substrate cleavage – biochemical, quenched FRET substrate, counter-screen for ADAM10 exosite inhibitor project, dose response (AID 743253)
[16] = system: INS1; assay: INS-1E survival protection against cytokine death – cell-based, luminescence, retest, dose response (AID 449756); type: functional; conditions: Rattus norvegicus;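 note: cell death triggered by IL-1 beta plus TNF-alpha plus IFN-gamma mixture; protective hits raise ATP signal compared with cytokine alone wells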
[17] = reduction of Shn3 3'UTR-driven luciferase in osteoblasts – cell-based, Clone20 osteoblasts, firefly luciferase, cherry-picked, dose response (AID 624132); type: functional;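 note: firefly luciferase luminescence from reporter carrying the Shn3 3'UTR in osteoblasts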
[18] = loss of viability in HepG2 cells – cell-based, CellTiter-Glo, cherry-picked, cytotoxicity control for Shn3 inhibitor project, dose response (AID 624134); type: functional
[19] = non-specific 3'UTR reporter inhibition in Clone20-Shn3RL – cell-based, Renilla luciferase, cherry-picked, counter-screen for Shn3 inhibitor project, dose response (AID 624133); type: functional
[20] = target: T2, Disintegrin and metalloproteinase domain-containing protein 17; assay: exosite inhibitors of ADAM17, dose response, biochemical (AID 743260)
[21] = inhibition of ADAM10 peptide cleavage – biochemical, FRET peptide substrate, recombinant human ADAM10, selectivity assay for ADAM17 exosite inhibitor project, dose response (AID 743259);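 note: ADAM10 enzyme cleaving a FRET peptide substrate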
[22] = target: Major prion protein (Homo sapiens, UniProt P04156); type: functional, cell-based
[23] = cells
[24] = target: fMet-Leu-Phe receptor (Homo sapiens, UniProt P21462); assay: formyl peptide receptor binders – dose response (AID 519); type: functional
[25] = viability loss in HepG2 hepatoma cells – cell-based, ATP luminescence, cherry-pick, activator set 2, cytotoxicity control, dose response (AID 1053143); type: functional
[26] = inhibitors acting on PAX2 in cells – cell-based, plate reader, dry powder samples, selectivity assay for PAX8 inhibitor project, dose response (AID 743048); type: functional;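 note: HEK293 cells carrying a WT1 promoter luciferase reporter driven by expressed Pax2; potency is for inhibition of Pax2 driven reporter signal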
[27] = OVCAR-3 cell viability loss – plate reader, dry powder samples, PAX8 inhibitor project, dose response (AID 743044); type: functional, cell-based
[28] = IGROV1 cell killing – plate reader, dry powder samples, PAX8 inhibitor project, dose response (AID 743043); type: functional, cell-based; conditions: IGROV-1
[29] = COV434 cell viability loss – plate reader, dry powder, SA7, cytotoxicity control for PAX8 inhibitor project, dose response (AID 743145); type: functional, cell-based
[30] = OV-90 cell viability loss – plate reader, dry powder, SA8, PAX8 inhibitor project, dose response (AID 743149); type: functional, cell-based
[31] = PAX8-dependent cell viability loss – plate reader, dry powder, dose response (AID 743049); type: functional, cell-based
[32] = target: Fructose-bisphosphate aldolase (Mycobacterium tuberculosis, UniProt P9WQA3); assay: Fluorescence-based biochemical high throughput dose response assay for inhibitors of the fructose-bisphosphate aldolase (FBA) of M. tuberculosis.; type: functional
[33] = target: 1-phosphatidylinositol 4,5-bisphosphate phosphodiesterase gamma-1 (Homo sapiens, UniProt P19174); assay: Counterscreen for inhibitors of phospholipase C isozymes (PLC-B3): Fluorescence-based biochemical high throughput dose response assay to identify inhibitors of phospholipase C isozymes (PLC-gamma1).
[34] = target: 1-phosphatidylinositol 4,5-bisphosphate phosphodiesterase beta-3 (Homo sapiens, UniProt Q01970); assay: Fluorescence-based biochemical high throughput dose response assay to identify inhibitors of phospholipase C isozymes (PLC-B3).
[35] = target: Paired box protein Pax-8 (Homo sapiens, UniProt Q06710); assay: PAX8 transcriptional activity inhibition in RMG-I – RMG-I cells, luciferase, cherry-pick, dose response (AID 687027); type: functional, cell-based;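 note: luciferase reporter driven by Pax8 target thyroperoxidase promoter measured by SteadyGlo luminescence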
[36] = CMV-driven luciferase expression suppression in HEK293 – cell-based, luminescence, dry powder, counter-screen for Pax8 inhibitor project, dose response (AID 743020); type: functional
[37] = A549 cell cytotoxicity, dose response, cytotoxicity control, plate reader, cherry-pick, antagonist series (AID 743412); type: functional, cell-based
[38] = inhibition of bursicon-driven LGR2 cAMP signaling – cell-based, HEK293, CRE-luciferase reporter, cherry pick, dose response (AID 743342); type: functional
[39] = blockade of melanocortin 4 receptor signaling – cell-based, plate reader, cherry pick, counter-screen for LGR2 antagonist project, dose response (AID 743444); type: functional;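 note: transfected HEK 293 cells stimulated with alpha-MSH peptide; potency of inhibitors of the alpha-MSH evoked signal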
[40] = Late stage assay provider results from the probe development effort to identify selective inhibitors of heat shock protein 90 (HSP90): Absorbance-based cell proliferation assay in SKBR3 cells.; type: functional; conditions: SK-BR-3
[41] = Late stage assay provider results from the probe development effort to identify selective inhibitors of heat shock protein 90 (HSP90): Absorbance-based cell proliferation assay in MCF7 cells.; type: functional
[42] = target: T3, Caspase-6 (Homo sapiens, UniProt P55212); assay: inhibition of CASP6 peptide cleavage – biochemical, VEID-R110 fluorescence, dry powder retest, dose response (AID 743332)
T3 sequence (P55212 whole entry): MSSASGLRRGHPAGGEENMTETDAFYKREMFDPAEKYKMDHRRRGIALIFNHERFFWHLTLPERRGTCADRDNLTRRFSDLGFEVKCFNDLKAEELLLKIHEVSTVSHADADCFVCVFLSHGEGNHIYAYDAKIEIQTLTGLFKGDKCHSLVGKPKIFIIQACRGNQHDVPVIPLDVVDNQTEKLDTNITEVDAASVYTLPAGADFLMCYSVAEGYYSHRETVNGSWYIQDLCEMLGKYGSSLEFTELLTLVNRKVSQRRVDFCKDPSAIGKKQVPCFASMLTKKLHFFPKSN

T2 sequence (P78536 whole entry, the tested form may be a part): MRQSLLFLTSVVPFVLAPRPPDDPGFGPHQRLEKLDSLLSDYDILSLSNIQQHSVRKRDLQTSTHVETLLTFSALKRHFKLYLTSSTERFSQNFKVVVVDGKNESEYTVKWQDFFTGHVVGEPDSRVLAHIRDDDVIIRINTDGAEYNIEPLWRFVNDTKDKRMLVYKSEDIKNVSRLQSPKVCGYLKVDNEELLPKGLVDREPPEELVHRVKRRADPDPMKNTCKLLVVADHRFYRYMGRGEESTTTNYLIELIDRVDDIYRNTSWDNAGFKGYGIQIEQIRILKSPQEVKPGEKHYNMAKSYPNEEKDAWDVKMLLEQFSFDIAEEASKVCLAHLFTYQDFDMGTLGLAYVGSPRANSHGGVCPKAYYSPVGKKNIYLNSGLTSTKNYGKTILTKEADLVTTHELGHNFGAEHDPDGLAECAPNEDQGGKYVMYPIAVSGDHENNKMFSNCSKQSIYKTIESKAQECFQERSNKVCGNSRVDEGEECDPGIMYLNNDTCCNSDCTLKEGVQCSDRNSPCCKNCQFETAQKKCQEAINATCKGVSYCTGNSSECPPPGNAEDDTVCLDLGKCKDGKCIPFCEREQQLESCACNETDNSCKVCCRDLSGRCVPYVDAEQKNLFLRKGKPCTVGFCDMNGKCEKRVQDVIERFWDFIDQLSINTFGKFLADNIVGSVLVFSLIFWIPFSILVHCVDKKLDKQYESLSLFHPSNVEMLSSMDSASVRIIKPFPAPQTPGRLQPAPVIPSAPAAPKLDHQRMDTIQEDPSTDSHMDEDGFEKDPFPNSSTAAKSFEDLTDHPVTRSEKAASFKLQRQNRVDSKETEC
Sequence of Cytochrome P450 2C19 (P33261 whole entry): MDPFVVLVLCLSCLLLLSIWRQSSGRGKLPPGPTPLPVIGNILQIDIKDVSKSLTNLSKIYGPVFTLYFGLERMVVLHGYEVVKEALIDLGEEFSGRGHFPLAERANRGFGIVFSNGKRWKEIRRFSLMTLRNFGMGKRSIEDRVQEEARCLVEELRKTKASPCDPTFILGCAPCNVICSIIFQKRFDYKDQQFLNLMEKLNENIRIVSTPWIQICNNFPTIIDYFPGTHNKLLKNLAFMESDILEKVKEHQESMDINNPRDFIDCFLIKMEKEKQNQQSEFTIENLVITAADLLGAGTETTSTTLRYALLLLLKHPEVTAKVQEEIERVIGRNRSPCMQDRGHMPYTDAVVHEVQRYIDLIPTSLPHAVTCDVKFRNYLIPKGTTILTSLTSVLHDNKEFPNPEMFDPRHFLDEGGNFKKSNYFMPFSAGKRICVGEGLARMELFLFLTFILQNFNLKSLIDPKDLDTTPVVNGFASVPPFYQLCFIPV
Sequence of SWI/SNF-related matrix-associated actin-dependent regulator of chromatin subfamily A member 2 (P51531 whole entry): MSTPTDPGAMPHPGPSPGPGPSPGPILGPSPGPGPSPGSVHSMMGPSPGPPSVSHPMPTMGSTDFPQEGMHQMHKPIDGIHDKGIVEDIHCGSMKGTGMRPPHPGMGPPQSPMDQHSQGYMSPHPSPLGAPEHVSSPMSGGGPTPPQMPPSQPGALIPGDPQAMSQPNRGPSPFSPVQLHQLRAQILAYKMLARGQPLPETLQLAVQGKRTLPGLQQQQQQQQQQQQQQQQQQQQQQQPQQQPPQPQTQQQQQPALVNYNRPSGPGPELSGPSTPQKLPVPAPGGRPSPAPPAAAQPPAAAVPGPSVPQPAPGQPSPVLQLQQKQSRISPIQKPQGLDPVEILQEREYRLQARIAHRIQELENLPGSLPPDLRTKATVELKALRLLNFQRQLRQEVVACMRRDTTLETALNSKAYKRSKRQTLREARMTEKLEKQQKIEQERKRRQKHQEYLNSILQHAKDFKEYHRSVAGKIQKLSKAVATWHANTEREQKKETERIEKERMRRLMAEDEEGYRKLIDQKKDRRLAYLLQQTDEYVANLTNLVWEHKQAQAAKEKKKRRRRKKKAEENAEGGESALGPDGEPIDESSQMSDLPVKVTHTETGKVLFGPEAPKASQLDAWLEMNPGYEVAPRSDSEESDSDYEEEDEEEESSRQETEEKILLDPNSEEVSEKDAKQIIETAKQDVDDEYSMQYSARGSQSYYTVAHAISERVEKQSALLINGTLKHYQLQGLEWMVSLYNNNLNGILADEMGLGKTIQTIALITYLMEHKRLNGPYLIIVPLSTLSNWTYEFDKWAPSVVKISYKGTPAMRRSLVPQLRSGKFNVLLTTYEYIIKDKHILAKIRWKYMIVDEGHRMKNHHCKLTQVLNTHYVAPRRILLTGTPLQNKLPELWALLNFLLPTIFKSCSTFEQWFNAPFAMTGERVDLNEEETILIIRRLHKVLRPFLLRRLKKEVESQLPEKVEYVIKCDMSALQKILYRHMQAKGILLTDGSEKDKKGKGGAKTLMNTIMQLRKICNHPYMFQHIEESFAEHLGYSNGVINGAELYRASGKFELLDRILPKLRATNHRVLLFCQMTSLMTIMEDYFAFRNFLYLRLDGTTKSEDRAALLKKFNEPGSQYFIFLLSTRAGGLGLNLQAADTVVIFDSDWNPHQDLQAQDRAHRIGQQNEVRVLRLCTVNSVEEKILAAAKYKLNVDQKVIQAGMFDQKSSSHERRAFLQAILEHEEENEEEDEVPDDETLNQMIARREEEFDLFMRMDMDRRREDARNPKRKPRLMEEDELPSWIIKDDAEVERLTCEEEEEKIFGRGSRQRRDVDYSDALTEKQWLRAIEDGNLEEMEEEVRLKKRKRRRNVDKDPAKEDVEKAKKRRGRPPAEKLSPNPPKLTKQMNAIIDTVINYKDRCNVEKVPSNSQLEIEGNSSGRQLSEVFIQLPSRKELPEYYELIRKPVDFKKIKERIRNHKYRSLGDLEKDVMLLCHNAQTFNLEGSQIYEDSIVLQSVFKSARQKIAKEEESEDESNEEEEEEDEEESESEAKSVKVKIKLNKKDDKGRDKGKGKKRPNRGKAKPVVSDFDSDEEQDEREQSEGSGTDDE
Sequence of Paired box protein Pax-8 (Q06710 whole entry): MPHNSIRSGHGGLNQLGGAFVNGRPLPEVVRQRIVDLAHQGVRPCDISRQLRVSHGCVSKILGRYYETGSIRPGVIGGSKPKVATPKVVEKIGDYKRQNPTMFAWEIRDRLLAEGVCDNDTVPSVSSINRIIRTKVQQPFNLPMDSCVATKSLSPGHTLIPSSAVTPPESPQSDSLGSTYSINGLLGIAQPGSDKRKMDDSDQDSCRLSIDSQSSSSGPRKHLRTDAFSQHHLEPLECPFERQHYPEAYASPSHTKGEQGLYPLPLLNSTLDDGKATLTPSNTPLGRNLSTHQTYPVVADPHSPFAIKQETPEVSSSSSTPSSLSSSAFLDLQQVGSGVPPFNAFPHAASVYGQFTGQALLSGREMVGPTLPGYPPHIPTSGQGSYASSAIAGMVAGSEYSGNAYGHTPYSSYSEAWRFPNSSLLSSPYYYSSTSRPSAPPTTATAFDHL
Sequence of fMet-Leu-Phe receptor (P21462 whole entry): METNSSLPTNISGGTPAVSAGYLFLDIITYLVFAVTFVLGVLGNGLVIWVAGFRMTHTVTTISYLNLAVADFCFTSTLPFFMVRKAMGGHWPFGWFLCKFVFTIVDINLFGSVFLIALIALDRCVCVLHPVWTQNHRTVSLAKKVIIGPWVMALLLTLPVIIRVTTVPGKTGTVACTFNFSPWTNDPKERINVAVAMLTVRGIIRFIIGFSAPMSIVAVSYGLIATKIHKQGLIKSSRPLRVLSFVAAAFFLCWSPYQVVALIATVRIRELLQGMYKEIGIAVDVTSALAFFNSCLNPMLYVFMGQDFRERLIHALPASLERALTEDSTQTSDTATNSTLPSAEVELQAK
Sequence of 1-phosphatidylinositol 4,5-bisphosphate phosphodiesterase beta-3 (Q01970 whole entry): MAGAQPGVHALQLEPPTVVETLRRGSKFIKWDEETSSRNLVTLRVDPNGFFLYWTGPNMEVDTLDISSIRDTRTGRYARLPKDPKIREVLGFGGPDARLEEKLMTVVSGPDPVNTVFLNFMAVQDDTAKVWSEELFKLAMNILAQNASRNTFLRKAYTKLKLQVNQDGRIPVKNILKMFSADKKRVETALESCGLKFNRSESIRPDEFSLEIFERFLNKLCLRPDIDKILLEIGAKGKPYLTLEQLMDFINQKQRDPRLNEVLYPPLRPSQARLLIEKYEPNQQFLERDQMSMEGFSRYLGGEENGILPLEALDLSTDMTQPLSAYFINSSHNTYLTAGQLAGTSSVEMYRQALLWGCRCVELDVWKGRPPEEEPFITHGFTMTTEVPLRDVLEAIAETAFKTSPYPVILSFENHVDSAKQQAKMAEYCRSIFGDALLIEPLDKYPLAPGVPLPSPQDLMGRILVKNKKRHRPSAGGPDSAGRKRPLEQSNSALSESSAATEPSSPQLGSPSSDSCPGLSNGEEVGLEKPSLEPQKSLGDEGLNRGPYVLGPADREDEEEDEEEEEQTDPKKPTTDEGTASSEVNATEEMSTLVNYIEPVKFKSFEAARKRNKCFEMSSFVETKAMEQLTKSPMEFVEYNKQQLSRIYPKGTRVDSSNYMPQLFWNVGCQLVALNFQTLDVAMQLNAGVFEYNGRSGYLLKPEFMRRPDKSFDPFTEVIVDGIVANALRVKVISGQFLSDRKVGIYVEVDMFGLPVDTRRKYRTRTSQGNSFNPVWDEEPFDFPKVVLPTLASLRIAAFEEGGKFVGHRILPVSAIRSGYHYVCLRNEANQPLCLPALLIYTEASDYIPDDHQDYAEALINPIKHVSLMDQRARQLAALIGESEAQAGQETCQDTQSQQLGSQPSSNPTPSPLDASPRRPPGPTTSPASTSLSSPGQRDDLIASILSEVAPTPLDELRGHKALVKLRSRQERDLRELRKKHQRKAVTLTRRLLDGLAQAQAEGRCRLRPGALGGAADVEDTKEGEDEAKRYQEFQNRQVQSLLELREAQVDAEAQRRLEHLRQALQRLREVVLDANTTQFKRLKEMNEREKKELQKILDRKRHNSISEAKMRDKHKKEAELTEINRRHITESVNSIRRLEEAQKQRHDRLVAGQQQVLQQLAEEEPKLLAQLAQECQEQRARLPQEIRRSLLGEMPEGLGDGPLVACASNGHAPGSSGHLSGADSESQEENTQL

CC(C)(C)c1ccc(C(=O)NCC(=O)NNC(=O)c2ccccc2O)cc1
IC50 [1]: > 94.1 µM (inactive)

CCOC(=O)N1CCN(C(=O)c2cc(-c3ccc(F)cc3)[nH]c2C)CC1
AC50 [2]: 10 µM (inconclusive)
IC50 [3]: > 80 µM (inactive)
AC50 [4]: 20 µM (inconclusive)

CCn1c(=O)cc(SCC(=O)Nc2ccc(C)cn2)c2ccccc21
EC50 [5]: > 79.4 µM (inactive)
EC50 [6]: > 79.4 µM (not active)
EC50 [7]: > 79.4 µM (not active)
IC50 [8]: 0.469 µM (active)
EC50 [9]: > 91.2 µM (inactive)
EC50 [10]: > 91.2 µM (inactive)

Cn1c(NC(=O)CCC2CCCCC2)cc(=O)n(C)c1=O
EC50 [11]: > 67.5 µM (inactive)

S=C(Nc1ccc(Nc2ccccc2)cc1)NC1CCCCCC1
EC50 [12]: 2.21 µM (active)
EC50 [13]: 29 µM (active)
IC50 [14]: > 7.72 µM (active)
IC50 [15]: > 69.5 µM (inactive)

Cc1cccc(Oc2cc(NC(=O)c3ccccc3)cc([N+](=O)[O-])c2)c1
AC50 [16]: 3.57 µM (active)
AC50 [17]: 3.09 µM (active)
AC50 [18]: 45.5 µM (active)
AC50 [19]: 13.6 µM (active)
IC50 [20]: > 69.5 µM (inactive)
IC50 [21]: > 69.5 µM (inactive)

CN(C)S(=O)(=O)c1ccc(NC(=O)CSc2ncnc3ccccc23)cc1
IC50 [22]: 16.5 µM (inactive)
IC50 [23]: > 138 µM (inactive)

COc1cc(C2C(C(=O)c3ccco3)=C(O)C(=O)N2CCc2ccccc2)ccc1O (configuration not stated)
Ki [24]: > 66.7 µM (inactive)

Cc1cc(NC(=O)c2ccco2)sc1C
AC50 [25]: 26 µM (active)

CN(C)CCCN(C(=O)CCOc1ccccc1)c1nc2c(F)cccc2s1
AC50 [26]: > 100 µM (inactive)
AC50 [27]: 44.9 µM (active)
AC50 [28]: 44.1 µM (active)
AC50 [29]: 22.8 µM (active)
AC50 [30]: 13.1 µM (active)
AC50 [31]: 10.8 µM (active)

CCOC(=O)N1CCc2cc(OC)c(OC)c3c2c1cc1cc(OC)c(OC)cc13
IC50 [32]: 2.7 µM (active)

ONC(=Nc1ccc(Cl)cc1)c1ccccc1
IC50 [33]: > 122 µM (inactive)
IC50 [34]: > 122 µM (inactive)

C[C@@H]1CCCCO[C@H](CN(C)Cc2ccc(Cl)c(Cl)c2)[C@@H](C)CN([C@@H](C)CO)C(=O)c2cc(NC(=O)Nc3ccccc3)ccc2O1
AC50 [35]: 4.29 µM (active)
AC50 [36]: 47.9 µM (active)

C[C@H]1CCCCO[C@@H](CN(C)C(=O)Nc2ccc(F)cc2)[C@@H](C)CN([C@@H](C)CO)C(=O)c2cc(NC(=O)C3CCCCC3)ccc2O1
AC50 [37]: 44.2 µM (active)
AC50 [38]: 3.88 µM (active)
AC50 [39]: 66 µM (active)

N#Cc1cc2ccc(OCCCCC(=O)O)cc2oc1=O
IC50 [40]: > 100 µM (inactive)
IC50 [41]: > 100 µM (inactive)

N#Cc1ccc(C(=O)N2CCN(S(=O)(=O)c3ccccc3)CC2)cc1
AC50 [42]: > 70 µM (inactive)

From ChEMBL document CHEMBL1201862, “PubChem BioAssay data set” (2004)
